Literature values, collected in PubChem BioAssay AID1259409 (Chemical Carcinogenesis Research Information System (CCRIS), 2018).
Where “and” joins values, the source holds several entries; their conditions need not be identical. Identical values can stand only once.

System: rodent chemically induced tumor inhibition, incidence and multiplicity
Assay: CCRIS tumor inhibitor studies

Compound: O=C(O)/C=C/c1ccccc1O
- tumour outcome (control, treated, inhibition, significance) (Carcinogen: BENZO[A]PYRENE, 50-32-8, Dose [Inhibitor]: 0.03 MMOL/G OF DIET DAILY STARTING 7 D BEFORE AND CONTINUING THROUGH 3 D AFTER CARCINOGEN TREATMENT FOLLOWED BY OBSERVAT, Route [Inhibitor]: ORAL, Species: MOUSE, Strain/Sex: ICR/FEMALE, Target Tissue: Type of Lesion: FORESTOMACH: NEOPLASM, Dose [Carcinogen]: 1 MG IN 0.2 ML CORN OIL 2/WK FOR 4 WK, Promoter: NONE USED): 100%, 100%, 0%, not significant
- tumour outcome (control, treated, inhibition, significance) (Carcinogen: BENZO[A]PYRENE, 50-32-8, Dose [Inhibitor]: 0.06 MMOL/G OF DIET DAILY STARTING 7 D BEFORE AND CONTINUING THROUGH 3 D AFTER CARCINOGEN TREATMENT FOLLOWED BY OBSERVAT, Route [Inhibitor]: ORAL, Species: MOUSE, Strain/Sex: ICR/FEMALE, Target Tissue: Type of Lesion: FORESTOMACH: NEOPLASM, Dose [Carcinogen]: 1 MG IN 0.2 ML CORN OIL 2/WK FOR 4 WK, Promoter: NONE USED): 100%, 84%, 16%, not significant and 97%, 89%, 8%, not significant and 100%, 82%, 18%, not significant

Compound: O=c1ccc2cc(O)c(O)cc2o1
- tumour outcome (control, treated, inhibition, significance) (Carcinogen: 7,12-DIMETHYLBENZ[A]ANTHRACENE, 57-97-6, Dose [Inhibitor]: 0, 0.03% IN HIGH-FAT (20% SOYBEAN OIL) DIET FOR 19 WK BEGINNING 1 WK POST CARCINOGEN DOSE (STUDY DURATION: 20 WK), Route [Inhibitor]: ORAL, Species: RAT, Strain/Sex: SPRAGUE-DAWLEY/FEMALE, Target Tissue: Type of Lesion: MAMMARY GLAND: TUMOR, Dose [Carcinogen]: 5 MG ONCE, Promoter: NONE USED): 13/15 (87%), 8/15 (53%), 39%, p<0.05
- tumour outcome (control, treated, inhibition, significance) (Carcinogen: 7,12-DIMETHYLBENZ[A]ANTHRACENE, 57-97-6, Dose [Inhibitor]: 0, 0.03% IN HIGH-FAT (20% SOYBEAN OIL) DIET FOR 20 WK BEGINNING 1 WK POST CARCINOGEN DOSE (STUDY DURATION: 21 WK), Route [Inhibitor]: ORAL, Species: RAT, Strain/Sex: SPRAGUE-DAWLEY/FEMALE, Target Tissue: Type of Lesion: MAMMARY GLAND: ADENOCARCINOMA, Dose [Carcinogen]: 5 MG ONCE, Promoter: NONE USED): 17/20 (85%), 10/19 (53%), 38%, p<0.05
- tumour outcome (control, treated, inhibition, significance) (Carcinogen: 7,12-DIMETHYLBENZ[A]ANTHRACENE, 57-97-6, Dose [Inhibitor]: 0, 0.03% IN LOW-FAT (0.5% SOYBEAN OIL) DIET FOR 19 WK BEGINNING 1 WK POST CARCINOGEN DOSE (STUDY DURATION: 20 WK), Route [Inhibitor]: ORAL, Species: RAT, Strain/Sex: SPRAGUE-DAWLEY/FEMALE, Target Tissue: Type of Lesion: MAMMARY GLAND: TUMOR, Dose [Carcinogen]: 5 MG ONCE, Promoter: NONE USED): 8/15 (53%), 3/15 (20%), 62%, not significant
- tumour outcome (control, treated, inhibition, significance) (Carcinogen: 7,12-DIMETHYLBENZ[A]ANTHRACENE, 57-97-6, Dose [Inhibitor]: 0, 0.03% IN LOW-FAT (0.5% SOYBEAN OIL) DIET FOR 20 WK BEGINNING 1 WK POST CARCINOGEN DOSE (STUDY DURATION: 21 WK), Route [Inhibitor]: ORAL, Species: RAT, Strain/Sex: SPRAGUE-DAWLEY/FEMALE, Target Tissue: Type of Lesion: MAMMARY GLAND: ADENOCARCINOMA, Dose [Carcinogen]: 5 MG ONCE, Promoter: NONE USED): 10/18 (56%), 4/22 (18%), 68%, p<0.05
- tumour outcome (control, treated, inhibition, significance) (Carcinogen: N-METHYL-N-NITROSOUREA, 684-93-5, Dose [Inhibitor]: 0, 0.03% IN DIET FOR 24 WK BEGINNING 1 WK POST CARCINOGEN DOSE (STUDY DURATION: 25 WK), Route [Inhibitor]: ORAL, Species: RAT, Strain/Sex: SPRAGUE-DAWLEY/FEMALE, Target Tissue: Type of Lesion: MAMMARY GLAND: TUMOR, Dose [Carcinogen]: 50 MG/KG ONCE, Promoter: NONE USED): 24/30 (80%), 17/31 (55%), 31%, p<0.05

Compound: COc1ccc2c(c1)CCC(c1ccccc1)=C2c1ccc(OCCN2CCCC2)cc1
- tumour outcome (control, treated, inhibition, significance) (Carcinogen: 7,12-DIMETHYLBENZ[A]ANTHRACENE, 57-97-6, Dose [Inhibitor]: 1 MG/KG 3/WK BEGINNING 2 D AFTER DMBA TREATMENT (STUDY DURATION: 5 MO), Route [Inhibitor]: SUBCUTANEOUS, Species: RAT, Strain/Sex: SPRAGUE-DAWLEY/FEMALE, Target Tissue: Type of Lesion: MAMMARY GLAND: ADENOCARCINOMA, FIBROADENOMA, Dose [Carcinogen]: 5 MG IN 0.5 ML CORN OIL AT 50 D OF AGE, Promoter: NONE USED): 56%, 10%, 82%, not calculated and 34%, 1%, 97%, not calculated
- tumour outcome (control, treated, inhibition, significance) (Carcinogen: 7,12-DIMETHYLBENZ[A]ANTHRACENE, 57-97-6, Dose [Inhibitor]: 1 MG/KG 3/WK BEGINNING 2 D AFTER DMBA TREATMENT (STUDY DURATION: 5 MO), Route [Inhibitor]: SUBCUTANEOUS, Species: RAT, Strain/Sex: SPRAGUE-DAWLEY/FEMALE, Target Tissue: Type of Lesion: MAMMARY GLAND: ADENOCARCINOMA, FIBROADENOMA, Dose [Carcinogen]: 10 MG IN 0.5 ML CORN OIL AT 50 D OF AGE, Promoter: NONE USED): 58%, 27%, 53%, not calculated and 38%, 10%, 74%, not calculated
- tumour outcome (control, treated, inhibition, significance) (Carcinogen: 7,12-DIMETHYLBENZ[A]ANTHRACENE, 57-97-6, Dose [Inhibitor]: 1 MG/KG 3/WK BEGINNING 15 D AFTER DMBA TREATMENT (STUDY DURATION: 5 MO), Route [Inhibitor]: SUBCUTANEOUS, Species: RAT, Strain/Sex: SPRAGUE-DAWLEY/FEMALE, Target Tissue: Type of Lesion: MAMMARY GLAND: ADENOCARCINOMA, FIBROADENOMA, Dose [Carcinogen]: 5 MG IN 0.5 ML CORN OIL AT 50 D OF AGE, Promoter: NONE USED): 56%, 22%, 61%, not calculated and 34%, 5%, 85%, not calculated

Compound: C/C(=C\c1ccc(C(=O)O)cc1)c1ccc2c(c1)SCCC2(C)C
- tumour outcome (control, treated, inhibition, significance) (Carcinogen: 7,12-DIMETHYLBENZ[A]ANTHRACENE, 57-97-6, Dose [Inhibitor]: 1.7 NMOL IN 0.2 ML ACETONE 1 HR PRIOR TO EACH PROMOTER DOSE FOR 12 WK (STUDY DURATION: 14 WK), Route [Inhibitor]: DERMAL, Species: MOUSE, Strain/Sex: SENCAR/FEMALE, Target Tissue: Type of Lesion: SKIN: PAPILLOMA, Dose [Carcinogen]: 200 NMOL IN 0.2 ML ACETONE ONCE, Promoter: 12-O-TETRADECANOYLPHORBOL-13-ACETATE, 16561-29-8): 100%, 70%, 30%, not calculated
- tumour outcome (control, treated, inhibition, significance) (Carcinogen: 7,12-DIMETHYLBENZ[A]ANTHRACENE, 57-97-6, Dose [Inhibitor]: 1.7 NMOL IN 0.2 ML ACETONE 1 HR PRIOR TO EACH PROMOTER DOSE FOR 20 WK (STUDY DURATION: 22 WK), Route [Inhibitor]: DERMAL, Species: MOUSE, Strain/Sex: CD-1/FEMALE, Target Tissue: Type of Lesion: SKIN: PAPILLOMA, Dose [Carcinogen]: 200 NMOL IN 0.2 ML ACETONE ONCE, Promoter: 12-O-TETRADECANOYLPHORBOL-13-ACETATE, 16561-29-8): 94%, 67%, 29%, not calculated
- tumour outcome (control, treated, inhibition, significance) (Carcinogen: 7,12-DIMETHYLBENZ[A]ANTHRACENE, 57-97-6, Dose [Inhibitor]: 17 NMOL IN 0.2 ML ACETONE 1 HR PRIOR TO EACH PROMOTER DOSE FOR 12 WK (STUDY DURATION: 14 WK), Route [Inhibitor]: DERMAL, Species: MOUSE, Strain/Sex: SENCAR/FEMALE, Target Tissue: Type of Lesion: SKIN: PAPILLOMA, Dose [Carcinogen]: 200 NMOL IN 0.2 ML ACETONE ONCE, Promoter: 12-O-TETRADECANOYLPHORBOL-13-ACETATE, 16561-29-8): 100%, 72%, 28%, not calculated
- tumour outcome (control, treated, inhibition, significance) (Carcinogen: 7,12-DIMETHYLBENZ[A]ANTHRACENE, 57-97-6, Dose [Inhibitor]: 17 NMOL IN 0.2 ML ACETONE 1 HR PRIOR TO EACH PROMOTER DOSE FOR 20 WK (STUDY DURATION: 22 WK), Route [Inhibitor]: DERMAL, Species: MOUSE, Strain/Sex: CD-1/FEMALE, Target Tissue: Type of Lesion: SKIN: PAPILLOMA, Dose [Carcinogen]: 200 NMOL IN 0.2 ML ACETONE ONCE, Promoter: 12-O-TETRADECANOYLPHORBOL-13-ACETATE, 16561-29-8): 94%, 33%, 65%, not calculated
- tumour outcome (control, treated, inhibition, significance) (Carcinogen: 7,12-DIMETHYLBENZ[A]ANTHRACENE, 57-97-6, Dose [Inhibitor]: 170 NMOL IN 0.2 ML ACETONE 1 HR PRIOR TO EACH PROMOTER DOSE FOR 12 WK (STUDY DURATION: 14 WK), Route [Inhibitor]: DERMAL, Species: MOUSE, Strain/Sex: SENCAR/FEMALE, Target Tissue: Type of Lesion: SKIN: PAPILLOMA, Dose [Carcinogen]: 200 NMOL IN 0.2 ML ACETONE ONCE, Promoter: 12-O-TETRADECANOYLPHORBOL-13-ACETATE, 16561-29-8): 100%, 0%, 100%, not calculated
- tumour outcome (control, treated, inhibition, significance) (Carcinogen: 7,12-DIMETHYLBENZ[A]ANTHRACENE, 57-97-6, Dose [Inhibitor]: 170 NMOL IN 0.2 ML ACETONE 1 HR PRIOR TO EACH PROMOTER DOSE FOR 20 WK (STUDY DURATION: 22 WK), Route [Inhibitor]: DERMAL, Species: MOUSE, Strain/Sex: CD-1/FEMALE, Target Tissue: Type of Lesion: SKIN: PAPILLOMA, Dose [Carcinogen]: 200 NMOL IN 0.2 ML ACETONE ONCE, Promoter: 12-O-TETRADECANOYLPHORBOL-13-ACETATE, 16561-29-8): 94%, 0%, 100%, not calculated
